In patent US20160074462A1, “Method of Treating HCV” (priority 2014, published 2016):

Settings: human, in vivo
From the text: Food effect on the drug exposure (e.g., AUC) of Compound 1/r, Compound 2 and Compound 3 was not known. Food effect on the drug exposure of these compounds was also not considered predictable.
The increase in exposure was similar regardless of meal type (e.g., high-fat vs. moderate-fat) or calorie content (500-600 kcal vs. 1000 kcal). Therefore, the combination of Compound 1/r, Compound 2 and Compound 3, the combination of Compound 1/r and Compound 3, as well as the combination of Compound 1/r and Compound 2, can be taken with food without regard to the specific fat or calorie content.

## COC(=O)N[C@H](C(=O)N1CCCC1C(=O)Nc1ccc(C2CC[C@@H](c3ccc(NC(=O)[C@@H]4CCCN4C(=O)[C@@H](NC(=O)OC)C(C)C)cc3)N2c2ccc(C(C)(C)C)cc2)cc1)C(C)C (stereo partly shown) [Compound 3]
  increase of exposure (AUC) by food: up to 127%

## CC(C)c1nc(CN(C)C(=O)N[C@H](C(=O)N[C@@H](Cc2ccccc2)C[C@H](O)[C@H](Cc2ccccc2)NC(=O)OCc2cncs2)C(C)C)cs1 [ritonavir, reference compound]
  increase of exposure (AUC) by food: ≤ 63%

## COc1c(-c2ccc3cc(NS(C)(=O)=O)ccc3c2)cc(-n2ccc(=O)[nH]c2=O)cc1C(C)(C)C [Compound 2, N-(6-(3-tert-butyl-5-(2,4-dioxo-3,4-dihydropyrimidin-1(2H)-yl)-2-methoxyphenyl)naphthalen-2-yl)methanesulfonamide]
  increase of exposure (AUC) by food: ≤ 53%

## Cc1cnc(C(=O)N[C@H]2CCCCC/C=C\[C@@H]3C[C@@]3(C(=O)NS(=O)(=O)C3CC3)NC(=O)[C@@H]3C[C@@H](Oc4nc5ccccc5c5ccccc45)CN3C2=O)cn1 [Compound 1, (2R,6S,13aS,14aR,16aS,Z)-N-(cyclopropylsulfonyl)-6-(5-methylpyrazine-2-carboxamido)-5,16-dioxo-2-(phenanthridin-6-yloxy)-1,2,3,5,6,7,8,9,10,11,13a,14,14a,15,16,16a-hexadecahydrocyclopropa[e]pyrrolo[1,2-a][1,4]diazacyclop entadecine-14a-carboxamide]
  increase of exposure (AUC) by food: ≤ 367%
